Where “and” joins values, the source holds several entries; their conditions need not be identical. Equal entries are not always repeated.
Experiments:
[1] = target: T1, androgen receptor (adenovirus AdEasy+rAR in COS-7 cells) (Rattus norvegicus, UniProt P15207); experiment: COS-7 Whole-Cell Androgen Receptor Binding Assay, Adenovirus Transduction; settings: COS binding; 3000 nM unless otherwise noted
T1 construct: expressed in transfected cells
T1 sequence (P15207 1-902): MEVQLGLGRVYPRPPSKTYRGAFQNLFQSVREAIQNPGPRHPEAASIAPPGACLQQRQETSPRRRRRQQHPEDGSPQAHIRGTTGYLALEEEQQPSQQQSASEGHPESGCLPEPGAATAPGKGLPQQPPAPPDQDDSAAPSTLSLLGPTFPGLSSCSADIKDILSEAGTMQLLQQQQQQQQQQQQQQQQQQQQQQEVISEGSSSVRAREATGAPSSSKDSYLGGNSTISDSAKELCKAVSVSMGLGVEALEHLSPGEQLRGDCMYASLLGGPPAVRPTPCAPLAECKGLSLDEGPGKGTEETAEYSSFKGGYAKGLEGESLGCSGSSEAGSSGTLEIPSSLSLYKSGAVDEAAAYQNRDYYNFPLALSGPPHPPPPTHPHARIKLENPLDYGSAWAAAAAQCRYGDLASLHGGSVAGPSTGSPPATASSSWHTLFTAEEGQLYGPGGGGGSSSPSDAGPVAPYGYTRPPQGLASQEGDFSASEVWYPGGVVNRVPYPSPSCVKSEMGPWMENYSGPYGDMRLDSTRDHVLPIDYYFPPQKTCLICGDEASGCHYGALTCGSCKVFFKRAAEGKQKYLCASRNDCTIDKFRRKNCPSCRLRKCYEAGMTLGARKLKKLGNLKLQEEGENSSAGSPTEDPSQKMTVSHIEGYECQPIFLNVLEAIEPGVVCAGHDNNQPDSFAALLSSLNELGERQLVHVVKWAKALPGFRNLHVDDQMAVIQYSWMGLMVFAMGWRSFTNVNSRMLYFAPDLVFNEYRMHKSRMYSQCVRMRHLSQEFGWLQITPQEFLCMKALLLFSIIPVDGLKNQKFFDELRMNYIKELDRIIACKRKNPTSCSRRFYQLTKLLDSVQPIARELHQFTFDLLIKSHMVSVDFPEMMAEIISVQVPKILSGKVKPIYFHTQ
Method: COS-7 cells were plated in 96-well plates at 20,000 cells per well, in a solution of DMEM/F12 (GIBCO) containing 10% (v/v) charcoal-treated fetal bovine serum (Hyclone) and lacking phenol red. The cells were then incubated overnight at 37° C. in 5% (v/v) humidified CO2.
Test compound solutions were prepared by diluting the test compound in 100% (v/v) DMSO, if necessary.
Next, 1 mL of DMEM/F12 lacking phenol red was pipetted into each of the wells of a 2-mL 96-well assay block. […] The wells were carefully mixed by pipette.
In a 15 mL or 50 mL sterile centrifuge tube, a dilution in DMEM/F12 of the adenovirus AdEasy+rAR at a moi of 1:50 per well was prepared.
The medium was removed from the 96-well plates by inversion and the plates dried very briefly, inverted, on a sterile towel. As soon as possible after medium removal, 40 μL of the diluted test compound was added to each well, in duplicate. […] The plates were then incubated for 48 hours at 37° C. in 5% (v/v) humidified CO2.
The medium was removed from the above incubated plates by inversion and dried. Each well was then washed with 0.35 mL of 1×PBS. The PBS was then removed from the plates by inversion and the plates dried.
To each well was then added 50 μL of 0.5% (v/v) Triton X-100 (Sigma) in 1×PBS and the plates placed on a rotary shaker for 5 min. The contents of each well were then transferred to an OptiPlate-96 (Packard) scintillation plate. To each well was then added 0.2 mL of Microscint-20 (Packard) and the wells counted on a TopCount (Packard).
[…] Counts per well were measured and percents of inhibition determined. […] Counts per well were measured and IC50s determined by linear regression.

[2] = target: T2, androgen receptor (adenovirus AdEasy+rAR in L929 cells) (Rattus norvegicus, UniProt P15207); experiment: L929 Androgen Receptor Functional Assay, Adenovirus Transduction; type: cell-based; settings: L929 agonist testing
T2 construct: expressed in transfected cells
T2 sequence (P15207 1-902): T1 sequence (P15207 1-902)
Method: L929 cells were plated in 96-well plates at 20,000 cells per well, in DMEM/F12 (GIBCO) containing 10% (v/v) charcoal-treated fetal bovine serum (Hyclone) and lacking phenol red. The plates were then incubated overnight at 37° C. in 5% (v/v) humidified CO2.
Test compound dilutions were prepared in 100% (v/v) DMSO, if necessary. Each dilution was made to 1250× the final desired assay concentration.
First, 2 mL of DMEM/F12 lacking phenol red was pipetted into the wells of a 2-mL 96-well assay block. Next, 4 μL of the 1250× test compound dilutions were pipetted into each well of the assay block. The mixtures within the well were then carefully mixed by pipette.
In a 15 mL or 50 mL sterile centrifuge tube, a 2.5 nM (2.5×) dilution of R1881 (methyl-trienolone) in DMEM/F12 lacking phenol red was prepared.
In a second 15 mL or 50 mL centrifuge tube a solution containing an equal volume of DMEM to the first and an equal volume of 100% (v/v) DMSO to the volume of R1881 used in the first tube was prepared.
In a 15 mL or 50 mL sterile centrifuge tube, a dilution in DMEM/F12 of the adenovirus AdEasy+rAR at an moi of 1:500 per well was prepared.
The medium was removed from the 96-well plates by inversion and dried, inverted, very briefly. As soon as possible after medium removal, 40 μL of the diluted unlabeled test compound was added to each well, in duplicate. To each well designated for antagonist testing was added 40 μL of the 2.5 nM R1881 dilution to the wells for antagonist testing. To each well designated for agonist testing was added 40 μL of the DMSO dilution. Then 20 μL of the diluted adenovirus were added to all wells. The plates were incubated for 48 hours at 37° C. in 5% (v/v) humidified CO2.
To each well was added 100 μL of Steady-Glo luciferase assay substrate (Promega) and the plates were placed on a rotary shaker for 1 min. The plates were then incubated at room temperature in the dark for one hour. The contents of each well were then transferred to a white microtiter plate (Packard) and read on a Luminoskan Ascent (Thermo Lab Systems).
L929 AR percent activity was determined by testing dilutions of the test compound using a concentration of 3000 nM unless otherwise noted. L929 percent inhibition was determined by testing dilutions of the test compound using a concentration of 3000 nM. […] Luciferase activity per well were measured and EC50s and IC50s determined by linear regression.

[3] = system: testosterone-enhanced ventral prostate and seminal vesicle weights in castrated male Sprague Dawley rats; experiment: Ventral Prostate and Seminal Vesicle Weight In Vivo Assay; design: species or system rat; settings: immature castrated rats; once daily for five days, usually orally at 40 mg/kg, with testosterone propionate 2 mg/kg s.c.
In short: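 Immature (~50 g) castrated Sprague Dawley rats dosed once daily for five days with compound (usually oral, 40 mg/kg, cyclodextrin or methylcellulose vehicle) plus testosterone propionate 2 mg/kg s.c. Wet ventral prostate and seminal vesicle weights taken on day six; activity judged by prostate weight or body-weight-adjusted % inhibition.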

SMILES	% Inhibition [1]	inhibition at 3 µM [1]	% Activity ([2]; 3000 nM, 3 µM)	active / inactive (inhibition of testosterone-enhanced prostate weight) [3]	% Activity ([2]; 3000 nM)	% Activity ([2]; @ 8000 nM)
CCSCC(O)c1cc2cc([N+](=O)[O-])c(C(F)(F)F)cc2[nH]1 (centres unmarked) [compound 158]	56%	62%	3% and 2%	inactive	–	–
CCS(=O)(=O)CC(C)(O)c1cc2cc([N+](=O)[O-])c(C(F)(F)F)cc2[nH]1 (centres unmarked) [compound 143]	–	68%	–	active	0%	–
CCC(O)(CSCC(F)(F)F)c1cc2cc(F)c(C(F)(F)F)cc2[nH]1 (centres unmarked) [compound 194]	–	80%	–	inactive	2%	–
CC(O)(CS(C)(=O)=O)c1cc2cc(Cl)c(C(F)(F)F)cc2[nH]1 (centres unmarked) [compound 138]	–	78%	–	inactive	0%	–
CCCSCC(C)(O)c1cc2cc([N+](=O)[O-])c(C(F)(F)F)cc2[nH]1 (centres unmarked) [compound 168]	–	60%	–	inactive	3%	–
CC(O)(CSCC(F)(F)F)c1cc2cc(Cl)c(C(F)(F)F)cc2[nH]1 (centres unmarked) [compound 190]	–	100%	–	active	1%	–
CCSCC(C)(O)c1cc2cc(C#N)c(C(F)(F)F)cc2[nH]1 (centres unmarked) [compound 209]	–	61%	–	active	–	−3 @ 8000 nM %
CC(O)(CS(C)(=O)=O)c1cc2cc([N+](=O)[O-])c(C(F)(F)F)cc2[nH]1 (centres unmarked) [compound 140]	51.5%	–	–	active	0%	–
CSCC(C)(O)c1cc2cc(C#N)c(C(F)(F)F)cc2[nH]1 (centres unmarked) [compound 136]	–	4.8%	–	active	0%	–
CC[S+]([O-])C[C@](C)(O)c1cc2cc([N+](=O)[O-])c(C(F)(F)F)cc2[nH]1 (stereo in doubt) [Compound #155, 1-Ethanesulfinyl-2-(5-nitro-6-trifluoromethyl-1H-indol-2-yl)-propan-2-ol]	–	35%	–	inactive	2%	–
CCSCC(C)(O)c1cc2cc([N+](=O)[O-])cc(C(F)(F)F)c2[nH]1 (centres unmarked) [compound 212]	–	86%	–	active	−3%	–
CCSCC(C)(O)c1[nH]c2cc(C(F)(F)F)c(C#N)cc2c1C (single isomer, unassigned) [Compound #233, 2-(2-Ethylsulfanyl-1-hydroxy-1-methyl-ethyl)-3-methyl-6-trifluoromethyl-1H-indole-5-carbonitrile]	95% and 81%	–	0%	active	–	–
CSCC(C)(O)c1cc2cc(Cl)c(C(F)(F)F)cc2[nH]1 (centres unmarked) [compound 135]	–	98%	–	inactive	0%	–
CCSCC(O)(CC)c1cc2cc([N+](=O)[O-])c(C(F)(F)F)cc2[nH]1 (centres unmarked) [compound 169]	–	90%	–	active	2%	–
CC(O)(CSCc1ccccc1)c1cc2cc([N+](=O)[O-])c(C(F)(F)F)cc2[nH]1 (centres unmarked) [compound 160]	–	84%	–	inactive	1%	–
CCS(=O)(=O)CC(C)(O)c1cc2cc(C#N)c(C(F)(F)F)cc2[nH]1 (single isomer, unassigned) [Compound #222, 2-(2-Ethanesulfonyl-1-hydroxy-1-methyl-ethyl)-6-trifluoromethyl-1H-indole-5-carbonitrile]	–	42%	–	active	–	0 @ 8000 nM %
CC(O)(CS(=O)(=O)c1ccc(O)cc1)c1cc2cc(Cl)c(C(F)(F)F)cc2[nH]1 (centres unmarked) [compound 121]	–	72%	–	–	−4%	–
COc1ccc(S(=O)(=O)CC(C)(O)c2cc3cc(Cl)c(C(F)(F)F)cc3n2S(C)(=O)=O)cc1 (centres unmarked) [compound 128]	–	21%	–	–	−4%	–
CCSCC(C)(O)c1cc2cc([N+](=O)[O-])c(C(F)(F)F)cc2[nH]1 (single isomer, unassigned) [compound 149]	63% and 78%	–	2%	–	–	–
CC(O)(CS(C)(=O)=O)c1cc2cc(Cl)c(C(F)(F)F)cc2n1S(C)(=O)=O (centres unmarked) [compound 137]	–	73%	–	–	0%	–
CC(O)(CSc1ccc([N+](=O)[O-])cc1)c1cc2cc(Cl)c(C(F)(F)F)cc2[nH]1 (centres unmarked) [compound 122]	–	66%	–	–	10%	–
CSCC(C)(O)c1cc2cc([N+](=O)[O-])c(C(F)(F)F)cc2[nH]1 (single isomer, unassigned) [compound 145]	84.7%	–	1%	–	–	–
CCS(=O)(=O)CC(C)(O)c1cc2cc([N+](=O)[O-])c(C(F)(F)F)cc2[nH]1 (centres unmarked) [compound 151]	55%	–	–	–	–	−1 @ 8000 nM %
CCSCC(C)(O)c1cc2cc(C#N)c(Cl)cc2[nH]1 (centres unmarked) [compound 225]	–	82%	–	–	1%	–

From patent US8394971B2, “Indole derivatives as selective androgen receptor modulators (SARMS)” (Janssen Pharmaceutica N.V., priority 2004, dated 2013)
